From US7612200B2, “Inhibitors of protein kinases” (Locus Pharmaceuticals, Inc., priority 2004, dated 2009)

Columns and labels:
Assay type in all cases: biochemical
MKK6 = MKK6 (Homo sapiens, UniProt P52564); assay: Protein kinase inhibition, MKK6; details: Rate (μM) 2, read-out: % Control
EphA8 = EphA8 (Homo sapiens, UniProt P29322); assay: Protein kinase inhibition, EphA8; details: Rate (μM) 2, read-out: % Control
JNK3 = JNK3 (Homo sapiens, UniProt P53779); assay: JNK3 Kinase Activity; details: compound at 2 μm
Protocol: (§1) JNK3 Kinase Activity: In a final reaction volume of 25 μl, JNK3 (h) (5-10 mU) is incubated with 50 mM Tris pH 7.5, 0.1 mM EGTA, 0.1% β-mercaptoethanol, 250 μM peptide, 10 mM MgAcetate and [γ-^33P-ATP] (specific activity approx. 500 cpm/pmol, concentration as required). The reaction is initiated by the addition of the MgATP mix. After incubation for 40 minutes at room temperature, the reaction is stopped by the addition of 5 μl of a 3% phosphoric acid solution. 10 μl of the reaction is then spotted onto a P30 filtermat and washed three times for 5 minutes in 75 mM phosphoric acid and once in methanol prior to drying and scintillation counting.

Ret = Ret (Homo sapiens, UniProt P07949); assay: Protein kinase inhibition, Ret; details: Rate (μM) 2, read-out: % Control
FGFR1 = FGFR1 (Homo sapiens, UniProt P11362); assay: Protein kinase inhibition, FGFR1; details: Rate (μM) 2, read-out: % Control
TrkA = TrkA (Homo sapiens, UniProt P04629); assay: Protein kinase inhibition, TrkA; details: Rate (μM) 2, read-out: % Control
EphA2 = EphA2 (Homo sapiens, UniProt P29317); assay: Protein kinase inhibition, EphA2; details: Rate (μM) 2, read-out: % Control
EphA5 = EphA5 (Homo sapiens, UniProt P54756); assay: Protein kinase inhibition, EphA5; details: Rate (μM) 2
Hck = Hck (Homo sapiens, UniProt P08631); assay: Protein kinase inhibition, Hck; details: Rate (μM) 2, read-out: % Control
ROCKI [1] = assay: Protein kinase inhibition, ROCKI (rat); details: Rate (μM) 2
Flt3 = molecular target: T1, Flt3 (Homo sapiens, UniProt P36888); assay: Flt3 Kinase Activity
T1 sequence (P36888 27-993): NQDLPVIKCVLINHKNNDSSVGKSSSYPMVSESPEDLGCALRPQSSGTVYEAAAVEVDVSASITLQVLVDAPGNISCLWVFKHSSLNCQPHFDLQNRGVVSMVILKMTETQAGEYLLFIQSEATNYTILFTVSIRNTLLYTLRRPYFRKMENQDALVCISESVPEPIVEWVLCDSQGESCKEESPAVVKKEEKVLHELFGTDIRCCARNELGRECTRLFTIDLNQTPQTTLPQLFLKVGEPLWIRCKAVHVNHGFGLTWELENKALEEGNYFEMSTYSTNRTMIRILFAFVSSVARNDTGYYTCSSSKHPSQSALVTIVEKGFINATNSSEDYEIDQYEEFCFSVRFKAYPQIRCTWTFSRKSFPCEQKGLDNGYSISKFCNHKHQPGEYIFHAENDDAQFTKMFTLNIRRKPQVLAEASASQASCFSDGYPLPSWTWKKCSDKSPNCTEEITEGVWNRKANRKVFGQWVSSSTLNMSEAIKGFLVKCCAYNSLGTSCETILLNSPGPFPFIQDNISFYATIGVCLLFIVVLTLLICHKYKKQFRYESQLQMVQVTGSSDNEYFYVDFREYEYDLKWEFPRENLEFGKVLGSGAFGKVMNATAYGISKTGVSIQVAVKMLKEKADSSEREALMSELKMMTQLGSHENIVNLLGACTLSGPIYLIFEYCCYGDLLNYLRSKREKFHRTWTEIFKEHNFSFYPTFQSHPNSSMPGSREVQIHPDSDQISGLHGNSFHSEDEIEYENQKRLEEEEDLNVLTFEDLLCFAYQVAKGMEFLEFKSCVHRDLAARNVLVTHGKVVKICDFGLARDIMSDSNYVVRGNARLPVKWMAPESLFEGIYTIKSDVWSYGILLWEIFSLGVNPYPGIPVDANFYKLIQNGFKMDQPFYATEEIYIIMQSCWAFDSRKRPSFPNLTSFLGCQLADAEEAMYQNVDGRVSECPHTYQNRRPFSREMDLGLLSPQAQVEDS
Protocol: Flt3 Kinase Activity: In a final reaction volume of 25 μl, Flt3 (h) (5-10 mU) is incubated with 8 mM MOPS pH 7.0, 0.2 mM EDTA, 50 μM EAIYAAPFAKKK, 10 mM MgAcetate and [γ-^33P-ATP] (specific activity approx. 500 cpm/pmol, concentration as required). The reaction is initiated by the addition of the MgATP mix. After incubation for 40 minutes at room temperature, the reaction is stopped by the addition of […] of a 3% phosphoric acid solution. […] of the reaction is then spotted onto a P30 filtermat and washed three times for 5 minutes in 75 mM phosphoric acid and once in methanol prior to drying and scintillation counting.

TAK1 = TAK1 (Homo sapiens, UniProt O43318); assay: Protein kinase inhibition, TAK1; details: Rate (μM) 2, read-out: % Control
ROCKI [2] = molecular target: ROCKI (Homo sapiens, UniProt Q13464); assay: Protein kinase inhibition, ROCKI (human); details: Rate (μM) 2, read-out: % Control
Lyn = Lyn (Mus musculus, UniProt P25911); assay: Protein kinase inhibition, Lyn (mouse); details: Rate (μM) 2, read-out: % Control
p38α = p38α (Homo sapiens, UniProt Q16539); assay: SAPK2a Kinase Activity (p38α)
Protocol: as §1, with “SAPK2a Kinase” for “JNK3 Kinase”, “μl, SAPK2a” for “μl, JNK3”, “with 25” for “with 50”, “7.5, 0.02” for “7.5, 0.1”, “EGTA, 0.33 mg/ml myelin basic protein,” for “EGTA, 0.1% β-mercaptoethanol, 250 μM peptide,”, “is the” for “is then”

Sequence of p38α (Q16539 whole entry): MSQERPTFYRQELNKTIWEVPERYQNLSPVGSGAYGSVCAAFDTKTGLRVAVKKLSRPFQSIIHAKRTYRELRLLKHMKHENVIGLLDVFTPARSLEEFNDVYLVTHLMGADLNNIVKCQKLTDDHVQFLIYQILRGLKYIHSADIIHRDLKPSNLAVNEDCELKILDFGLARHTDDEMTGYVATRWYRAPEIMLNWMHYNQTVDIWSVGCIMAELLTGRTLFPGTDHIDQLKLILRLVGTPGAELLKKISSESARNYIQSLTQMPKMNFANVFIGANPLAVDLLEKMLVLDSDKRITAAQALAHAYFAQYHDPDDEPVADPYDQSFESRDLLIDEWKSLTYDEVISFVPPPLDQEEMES
Sequence of TrkA (P04629 33-796): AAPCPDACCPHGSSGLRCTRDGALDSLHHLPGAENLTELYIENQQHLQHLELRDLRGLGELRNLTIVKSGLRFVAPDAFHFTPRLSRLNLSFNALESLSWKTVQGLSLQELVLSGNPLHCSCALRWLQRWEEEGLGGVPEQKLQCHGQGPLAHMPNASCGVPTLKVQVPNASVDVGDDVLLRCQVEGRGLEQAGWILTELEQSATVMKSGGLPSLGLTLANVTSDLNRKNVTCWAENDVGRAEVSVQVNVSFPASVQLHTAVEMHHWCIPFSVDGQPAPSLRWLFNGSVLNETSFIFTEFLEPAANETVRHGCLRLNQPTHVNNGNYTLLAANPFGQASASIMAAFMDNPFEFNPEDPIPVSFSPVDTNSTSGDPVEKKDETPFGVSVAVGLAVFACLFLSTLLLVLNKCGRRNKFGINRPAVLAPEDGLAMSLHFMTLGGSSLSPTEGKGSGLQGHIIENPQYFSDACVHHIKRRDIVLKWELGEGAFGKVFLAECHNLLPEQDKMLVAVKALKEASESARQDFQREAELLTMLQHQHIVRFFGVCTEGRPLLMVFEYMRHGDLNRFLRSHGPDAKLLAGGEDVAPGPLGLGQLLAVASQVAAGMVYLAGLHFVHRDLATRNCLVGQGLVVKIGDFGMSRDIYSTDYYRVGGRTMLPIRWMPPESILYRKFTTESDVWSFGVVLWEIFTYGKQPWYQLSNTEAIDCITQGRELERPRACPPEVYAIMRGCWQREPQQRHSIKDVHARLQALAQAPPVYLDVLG
Sequence of ROCKI (Homo sapiens, UniProt Q13464) (Q13464 whole entry): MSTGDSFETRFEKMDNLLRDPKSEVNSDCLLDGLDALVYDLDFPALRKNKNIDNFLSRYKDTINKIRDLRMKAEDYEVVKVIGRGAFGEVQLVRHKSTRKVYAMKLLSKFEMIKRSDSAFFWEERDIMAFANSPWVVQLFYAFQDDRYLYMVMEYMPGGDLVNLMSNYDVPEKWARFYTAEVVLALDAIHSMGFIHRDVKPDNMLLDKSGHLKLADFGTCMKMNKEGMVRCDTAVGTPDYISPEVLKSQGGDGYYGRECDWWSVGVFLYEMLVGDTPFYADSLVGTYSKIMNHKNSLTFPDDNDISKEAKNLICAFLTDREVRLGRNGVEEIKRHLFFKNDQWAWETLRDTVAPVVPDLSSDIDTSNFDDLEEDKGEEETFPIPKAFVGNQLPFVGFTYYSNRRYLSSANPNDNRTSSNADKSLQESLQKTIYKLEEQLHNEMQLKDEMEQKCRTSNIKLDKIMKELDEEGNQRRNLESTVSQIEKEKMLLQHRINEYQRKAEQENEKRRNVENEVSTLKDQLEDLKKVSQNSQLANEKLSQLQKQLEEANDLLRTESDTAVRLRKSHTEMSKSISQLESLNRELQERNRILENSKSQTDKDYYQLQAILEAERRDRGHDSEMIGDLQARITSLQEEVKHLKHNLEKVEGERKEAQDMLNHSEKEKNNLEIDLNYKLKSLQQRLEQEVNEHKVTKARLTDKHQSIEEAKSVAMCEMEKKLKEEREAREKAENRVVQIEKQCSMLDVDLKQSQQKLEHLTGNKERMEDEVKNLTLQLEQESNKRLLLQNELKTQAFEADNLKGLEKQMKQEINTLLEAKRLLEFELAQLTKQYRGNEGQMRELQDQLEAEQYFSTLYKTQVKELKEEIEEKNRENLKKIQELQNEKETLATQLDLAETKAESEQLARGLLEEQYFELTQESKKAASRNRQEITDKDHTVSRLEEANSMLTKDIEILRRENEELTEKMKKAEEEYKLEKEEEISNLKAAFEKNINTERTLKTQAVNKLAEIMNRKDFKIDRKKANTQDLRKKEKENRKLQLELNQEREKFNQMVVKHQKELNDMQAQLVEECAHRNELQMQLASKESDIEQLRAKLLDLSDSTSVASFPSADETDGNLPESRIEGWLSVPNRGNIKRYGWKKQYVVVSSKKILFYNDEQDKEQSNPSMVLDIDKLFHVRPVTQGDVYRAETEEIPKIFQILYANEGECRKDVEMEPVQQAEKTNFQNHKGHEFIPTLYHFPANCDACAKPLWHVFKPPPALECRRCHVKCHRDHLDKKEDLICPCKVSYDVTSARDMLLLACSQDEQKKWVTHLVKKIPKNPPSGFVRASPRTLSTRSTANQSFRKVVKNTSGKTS
Sequence of TAK1 (O43318 1-303 limits assumed): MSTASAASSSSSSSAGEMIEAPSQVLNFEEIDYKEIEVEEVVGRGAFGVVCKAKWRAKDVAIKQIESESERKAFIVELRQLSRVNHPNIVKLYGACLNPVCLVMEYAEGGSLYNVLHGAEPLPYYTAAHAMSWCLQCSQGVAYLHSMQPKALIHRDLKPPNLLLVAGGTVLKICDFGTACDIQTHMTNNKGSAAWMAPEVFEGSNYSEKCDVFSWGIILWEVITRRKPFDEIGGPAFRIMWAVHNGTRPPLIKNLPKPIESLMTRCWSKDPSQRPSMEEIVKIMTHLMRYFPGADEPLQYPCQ
Sequence of MKK6 (P52564 whole entry): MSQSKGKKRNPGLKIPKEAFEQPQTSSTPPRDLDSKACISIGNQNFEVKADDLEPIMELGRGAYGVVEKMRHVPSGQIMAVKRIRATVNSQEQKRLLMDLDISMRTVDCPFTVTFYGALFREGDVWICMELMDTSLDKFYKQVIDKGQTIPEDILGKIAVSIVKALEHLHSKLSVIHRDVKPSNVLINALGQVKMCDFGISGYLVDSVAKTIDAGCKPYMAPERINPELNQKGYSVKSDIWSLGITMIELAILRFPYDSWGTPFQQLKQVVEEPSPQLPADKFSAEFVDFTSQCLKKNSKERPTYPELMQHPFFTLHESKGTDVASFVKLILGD
Sequence of EphA5 (P54756 25-1037): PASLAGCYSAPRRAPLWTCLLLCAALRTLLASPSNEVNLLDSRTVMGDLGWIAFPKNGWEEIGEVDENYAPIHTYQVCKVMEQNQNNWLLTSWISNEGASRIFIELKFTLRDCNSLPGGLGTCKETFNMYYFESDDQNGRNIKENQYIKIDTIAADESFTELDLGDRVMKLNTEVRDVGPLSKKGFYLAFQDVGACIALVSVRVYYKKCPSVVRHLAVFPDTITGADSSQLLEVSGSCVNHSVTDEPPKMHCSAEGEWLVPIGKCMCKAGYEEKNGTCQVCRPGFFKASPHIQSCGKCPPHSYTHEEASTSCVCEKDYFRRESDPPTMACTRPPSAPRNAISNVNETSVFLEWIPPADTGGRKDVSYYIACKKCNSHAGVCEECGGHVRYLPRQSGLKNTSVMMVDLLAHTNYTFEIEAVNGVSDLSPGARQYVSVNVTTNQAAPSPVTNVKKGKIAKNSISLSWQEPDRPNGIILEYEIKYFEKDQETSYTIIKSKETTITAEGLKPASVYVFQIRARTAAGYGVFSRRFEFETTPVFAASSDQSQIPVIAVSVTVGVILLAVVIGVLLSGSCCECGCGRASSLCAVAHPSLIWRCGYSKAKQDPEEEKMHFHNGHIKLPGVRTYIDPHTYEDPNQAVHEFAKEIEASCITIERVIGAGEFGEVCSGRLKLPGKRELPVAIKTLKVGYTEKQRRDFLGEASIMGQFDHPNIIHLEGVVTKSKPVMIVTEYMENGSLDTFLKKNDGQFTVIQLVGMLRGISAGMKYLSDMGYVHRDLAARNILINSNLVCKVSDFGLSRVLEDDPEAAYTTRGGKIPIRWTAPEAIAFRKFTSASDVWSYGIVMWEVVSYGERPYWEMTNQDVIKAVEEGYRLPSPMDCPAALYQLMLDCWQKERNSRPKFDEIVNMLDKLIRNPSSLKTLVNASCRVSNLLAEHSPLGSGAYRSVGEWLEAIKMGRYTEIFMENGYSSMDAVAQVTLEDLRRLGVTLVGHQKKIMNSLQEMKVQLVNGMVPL
Sequence of JNK3 (P53779 whole entry): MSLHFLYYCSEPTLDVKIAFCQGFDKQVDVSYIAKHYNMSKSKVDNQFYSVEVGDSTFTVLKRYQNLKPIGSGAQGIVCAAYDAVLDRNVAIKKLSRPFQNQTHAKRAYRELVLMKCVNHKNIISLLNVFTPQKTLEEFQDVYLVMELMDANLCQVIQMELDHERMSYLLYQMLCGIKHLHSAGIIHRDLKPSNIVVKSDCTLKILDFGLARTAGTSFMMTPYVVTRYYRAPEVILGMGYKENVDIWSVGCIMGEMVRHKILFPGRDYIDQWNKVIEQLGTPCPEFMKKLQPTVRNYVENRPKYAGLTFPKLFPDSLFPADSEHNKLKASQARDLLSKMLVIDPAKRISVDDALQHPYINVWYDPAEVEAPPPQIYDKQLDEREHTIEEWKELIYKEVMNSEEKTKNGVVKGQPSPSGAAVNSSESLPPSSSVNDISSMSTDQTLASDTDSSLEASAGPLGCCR

Q: `CC(C)(C)c1cc(C(=O)N2CCS(=O)(=O)CC2)c(NC(=O)Nc2ccc(Oc3ccncc3)cc2)s1` [Example 3, 1-[5-tert-Butyl-3-(1,1-dioxo-1λ^6-thiomorpholine-4-carbonyl)thiophen-2-yl]-3-[4-(pyridin-4-yloxy)phenyl]urea] was tested. Which remaining activity at 2 µM (MKK6) did it give?
A: The remaining activity at 2 µM was 76 to 100%.

Q: And the remaining activity at 2 µM (EphA8)?
A: Its remaining activity at 2 µM is 76 to 100%.

Q: And the “% Inhibition at 2 μm” value (JNK3)?
A: The value was 0-25%.

Q: And the remaining activity at 2 µM (Ret)?
A: The remaining activity at 2 µM was 76 to 100%.

Q: And the remaining activity at 2 µM (FGFR1)?
A: Its remaining activity at 2 µM is 76 to 100%.

Q: And the remaining activity at 2 µM (TrkA)?
A: Its remaining activity at 2 µM is 76 to 100%.

Q: What about the remaining activity at 2 µM (EphA2) of the same compound?
A: Its remaining activity at 2 µM is 76 to 100%.

Q: And the “% Control” value (EphA5)?
A: Its value is 76-100%.

Q: What about the remaining activity at 2 µM (Hck) of the same compound?
A: The remaining activity at 2 µM was 76 to 100%.

Q: What about the “% inhibition” value (ROCKI [1]) of the same compound?
A: Its value is 51-75%.

Q: What about the remaining activity at 2 µM (Flt3; 40 min, Flt3, Human, Rate (μM) 2, read-out: % Control) of the same compound?
A: Its remaining activity at 2 µM is 76 to 100%.

Q: And the “% Inhibition at 2 μm” value (Flt3; Flt3, compound at 2 μm)?
A: The value was 76-100%.

Q: What about the remaining activity at 2 µM (TAK1) of the same compound?
A: The remaining activity at 2 µM was 76 to 100%.

Q: And the remaining activity at 2 µM (ROCKI [2])?
A: The remaining activity at 2 µM was 51 to 75%.

Q: And the remaining activity at 2 µM (Lyn)?
A: The remaining activity at 2 µM was 76 to 100%.

Q: What about the “% inhibition” value (p38α; P38a, Human, Rate (μM) 2) of the same compound?
A: The value was 76-100%.

Q: And the “% Inhibition at 2 μm” value (p38α; p38α, compound at 2 μm)?
A: The value was 76-100%.
